Results as given in the supplement of paper PMC10627819.

Assays:
Assay in all cases: fitness (endpoint OD595 vs no drug) (fraction); higher = more growth
S. pneumoniae D39V = tested on: S. pneumoniae D39V
In short: (§1)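 With the first reading as background, OD595 was measured every 30 min for 14 h in 384-well plates kept at 37 °C and inoculated at OD595 0.01. TSB, LB Lennox or CY was the medium. Fitness is the optical density at the transition into stationary phase divided by the robust mean of no-drug control wells, with a cap of 1.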

S. aureus DSM 20231 = tested on: S. aureus DSM 20231
In short: as §1

B. subtilis 168 = tested on: B. subtilis 168
In short: as §1
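Further: OD595 on entry to stationary phase over no-drug wells; at most 1.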

CC(=O)Oc1ccccc1C(=O)O [Acetylsalicylic acid] + CO/N=C(\C(=O)N[C@@H]1C(=O)N2C(C(=O)[O-])=C(C[N+]3(C)CCCC3)CS[C@H]12)c1csc(N)n1 [Cefepime]
fitness
Details | first compound 250 µg/mL | first compound 500 µg/mL | first compound 1000 µg/mL
S. aureus DSM 20231, partner 0.125 µg/mL | 0.856 | 0.712 | 0.624
S. aureus DSM 20231, partner 0.25 µg/mL | 0.83 | 0.683 | –
S. aureus DSM 20231, partner 0.5 µg/mL | 0.78 | 0.666 | 0.612
S. pneumoniae D39V, partner 0.007 µg/mL | 0.988 | ≥ 1 | 0.927
S. pneumoniae D39V, partner 0.0078 µg/mL | 0.992 | ≥ 1 | 0.915
S. pneumoniae D39V, partner 0.014 µg/mL | 0.99 | 0.995 | 0.969
S. pneumoniae D39V, partner 0.0155 µg/mL | ≥ 1 | ≥ 1 | 0.898
S. pneumoniae D39V, partner 0.028 µg/mL | 0.927 | 0.896 | 0.865
S. pneumoniae D39V, partner 0.031 µg/mL | 0.964 | ≥ 1 | 0.888

CC(=O)Oc1ccccc1C(=O)O [Acetylsalicylic acid] + CN1C2=CC=CC=C2N=C3C1=CC=CC3=O [Pyocyanin]
fitness
Details | first compound 250 µg/mL | first compound 500 µg/mL | first compound 1000 µg/mL
S. aureus DSM 20231, partner 1.25 µg/mL | 0.826 | 0.679 | 0.525
S. aureus DSM 20231, partner 2.5 µg/mL | 0.751 | 0.607 | 0.437
S. aureus DSM 20231, partner 5 µg/mL | 0.611 | 0.551 | 0.268
S. pneumoniae D39V, partner 0.325 µg/mL | ≥ 1 | 0.995 | 0.917
S. pneumoniae D39V, partner 0.65 µg/mL | 1 | 0.98 | 0.681
S. pneumoniae D39V, partner 1.3 µg/mL | 0.863 | 0.722 | 0.467

CN(C)[C@@H]1C(O)=C(C(N)=O)C(=O)[C@@]2(O)C(O)=C3C(=O)c4c(O)ccc(Cl)c4[C@@](C)(O)[C@H]3C[C@@H]12 [Chlortetracycline] + N[C@@H]1CONC1=O [Cycloserine D]
fitness
Details | first compound 0.012 µg/mL | first compound 0.024 µg/mL | first compound 0.0475 µg/mL | first compound 0.048 µg/mL | first compound 0.095 µg/mL | first compound 0.19 µg/mL
B. subtilis 168, partner 0.125 µg/mL | – | – | 0.936 | – | 0.784 | 0.515
B. subtilis 168, partner 0.25 µg/mL | – | – | 0.894 | – | 0.782 | 0.439
B. subtilis 168, partner 0.5 µg/mL | – | – | 0.899 | – | 0.764 | 0.515
S. aureus DSM 20231, partner 0.375 µg/mL | 0.667 | 0.241 | – | 0.0627 | – | –
S. aureus DSM 20231, partner 0.75 µg/mL | 0.623 | 0.249 | – | 0.0661 | – | –
S. aureus DSM 20231, partner 1.5 µg/mL | 0.68 | 0.264 | – | 0.0906 | – | –

S. aureus DSM 20231, first compound 0.006 µg/mL, one replicate
Details | fitness
partner 0.375 µg/mL | 0.804
partner 0.75 µg/mL | 0.782
partner 1.5 µg/mL | 0.804
